Experiments:
Format in all cases: in vivo, rat
[1] = test system: urethane-anesthetized female rats; test: Leak point pressure by direct compressing of the bladder (Example 4); settings: for leak point pressure after drug administration / leak point pressure increase / leak point pressure before drug administration: i.v., mean ± SEM; for leak point pressure after drug administration: 20 min later; for leak point pressure before drug administration: baseline; for effect on leak point pressure: intravenous administration
Method: SD female rats (body weight 180-350 g) were anesthetized with urethane (Wako Pure Chemical Industries, Ltd.), and halothane (Takeda Pharmaceutical Company Limited) anesthesia was added when necessary during operation.
The spinal cord was transected at T8-9 level to eliminate the reflex voiding. The lower abdomen was incised in the median line, a catheter for intravesical pressure measurement (PE-90, Clay Adams) was inserted into the bladder and secured with a ligature, and the intravesical pressure was measured via a pressure transducer. Urine was emptized in advance by bilaterally pressing the bladder with two swabs, and a 0.1% Evans blue (Merck) solution (0.4 mL) was injected into the bladder. The bladder was gradually compressed bilaterally with two swabs, and the intravesical pressure upon saline leakage from the urethral orifice was measured and defined as a leak point pressure. The measurement of the leak point pressure was repeated, and the average value of the final five stable measures was taken as the value before drug administration. Thereafter, the drug was intravenously administered, the leak point pressure was measured again 20 min later, and the value after the drug administration was determined. DOI, mCPP and eltoprazine were dissolved in saline, and other drugs were dissolved in DMA/PEG400 (1:1), and intravenously administered at 1 ml/kg and 0.5 mg/kg, respectively. Depending on the experiment, RS-102221 or SB221284 (showing serotonin 5-HT2C receptor antagonist activity) was administered, 5 min later, WAY-161503 or WAY-163909 was administered, leak point pressure was measured 10 min later, and a competitive assay with the action of WAY-161503 or WAY-163909 was performed. RS-102221 and SB221284 were both dissolved in DMA/PEG400 (1:1), and intravenously administered at 0.5 ml/kg.

[2] = test system: urethane-anesthetized female rats; test: Urethral contractile responses induced by intravesical pressure increase (Example 5); settings: for urethral contractile responses before administration: baseline; for urethral contractile responses before administration / urethral contractile responses after administration: mean ± SEM of 5 cases; for urethral contractile responses after administration: 5 min later; for effect on urethral contractile responses during elevation of intravesical pressure: intravenous, duloxetine 10 mg/kg, WAY161503 0.3 mg/kg
Method: (§1) SD female rats (body weight 180-350 g) were anesthetized with urethane (Wako Pure Chemical Industries, Ltd.), and the spinal cord was transected at T8-9 level to eliminate the reflex voiding.
Halothane (Takeda Pharmaceutical Company Limited) anesthesia was added when necessary during operation. After laparotomy, the bladder neck was tied with a suture thread and then a catheter (PE-90, Clay Adams) was inserted into the bladder and secured with a ligature. The other end of the bladder catheter was connected to a pressure transducer and saline storage reservoir (60 ml syringe) via a three-way stopcock. A microchip-transducer-catheter (SPR-524, Millar Instruments Inc.) was inserted from the meatus urethra. toward the bladder. Using the scale written on the catheter surface, the transducer part was set in the urethra at 12.5-15.0 mm from the urethral orifice with its side-mounted sensor facing the inner urethral surface in the 3 o'clock position.
Topical pressure changes in the urethra (hereinafter to be conveniently indicated as intraurethral pressure) measured by a microchip-transducer were input in a computer via an amplifier (blood pressure amplification unit AP-641G; NIHON KODEN) and an analog-to-digital converter (MP-100; biopack; sampled at 500 Hz) and recorded on a hard disc. […] The response of the urethra induced by the intravesical pressure increase was measured 3 times and the average of the final two measures was taken as the value before the drug administration.
The evaluation parameters were a resting intraurethral pressure and a reflex urethral contractile responses. An average intraurethral pressure per 1 sec was calculated, and the value immediately before intravesical pressure increase was taken as the resting intraurethral pressure, and the value obtained by subtracting the resting intraurethral pressure from the maximum value during intravesical pressure increase was taken as the urethral responses. After measurement of the response before drug administration, WAY-161503 (0.3 mg/kg), which is a serotonin 5-HT2C receptor agonist, or duloxetine (10 mg/kg) was intravenously administered, the intravesical pressure was increased again 5 min later, and the responses of the urethra were measured. The both drugs were dissolved in DMA-PEG400 (1:1), and administered at 0.5 ml/kg.

[3] = test system: urethane-anesthetized female rats; test: Leak point pressure by intravesical pressure-clamp method (Example 6); settings: for leak point pressure after drug administration / leak point pressure before drug administration: i.v., mean ± SEM; for leak point pressure after drug administration: 10 min later; for leak point pressure before drug administration: baseline; for effect on leak point pressure: intravesical pressure-clamp method
Method: as §1
Halothane (Takeda Pharmaceutical Company Limited) anesthesia was added when necessary during operation. After laparotomy, the bladder neck was tied with a suture thread and then a catheter (PE-90, Clay Adams) was inserted into the bladder and secured with a ligature. The other end of the bladder catheter was connected to a pressure transducer and saline storage reservoir (60 ml syringe) via a three-way cock.
Changes in the intravesical pressure measured by a transducer were input in a computer via an amplifier (blood pressure amplification unit AP-641G; NIHON KODEN) and an analog-to-digital cinverter (MP-100; biopack) and recorded on a hard disc. The intravesical pressure was raised for 90 sec by setting the saline storage reservoir at a given height, and the presence or absence of saline leakage from the urethral orifice was observed. The intravesical pressure was raised every 2.5 cmH2O and, after 90 sec observation period, the intravesical pressure was once returned to 0 cmH2O, after which the next step was performed. The intravesical pressure at which the saline leakage from the urethral orifice was observed was taken as the leak point pressure. The measurement of the leak point pressure was repeated and the average of the final three measures was taken as the value before the drug administration. The drug was intravenously administered, and the leak point pressure was measured again 10 min later. The drug was dissolved in DMA-PEG400 (1:1), and administered at 0.5 ml/kg.

Row | SMILES | leak point pressure after drug administration ([1]; 0.03 mg/kg) | leak point pressure increase ([1]; 0.03 mg/kg) | leak point pressure after drug administration ([1]; 0.1 mg/kg) | leak point pressure increase ([1]; 0.1 mg/kg) | leak point pressure after drug administration ([1]; 0.3 mg/kg) | leak point pressure increase ([1]; 0.3 mg/kg) | leak point pressure before drug administration ([1]; dose group 0.03 mg/kg) | leak point pressure before drug administration ([1]; dose group 0.1 mg/kg) | leak point pressure before drug administration ([1]; dose group 0.3 mg/kg) | effect on leak point pressure [1] | effect on urethral contractile responses during elevation of intravesical pressure [2] | leak point pressure after drug administration ([3]; 0.01 mg/kg) | leak point pressure before drug administration ([3]; dose group 0.01 mg/kg) | effect on leak point pressure [3] | further results
1 | O=C1Nc2cc(Cl)c(Cl)cc2N2CCNCC12 (stereo not drawn) [WAY-161503] | 62.0 ± 5.8 cmH2O | 7.1 ± 2.4 cmH2O | 66.1 ± 2.8 cmH2O | 11.5 ± 1.8 cmH2O | 77.7 ± 3.6 cmH2O | 22.0 ± 3.4 cmH2O | 54.9 ± 6.1 cmH2O | 54.7 ± 2.5 cmH2O | 55.7 ± 3.8 cmH2O | dose-dependently increased the leak point pressure | significant increase in the urethral contractile responses | 37.3 ± 3.5 cmH2O | 33.4 ± 3.4 cmH2O | increased the leak point pressure | urethral contractile responses before administration ([2]; increase in intravesical pressure to 25 cmH2O, dose group 0.3 mg/kg i.v.): 7.0 ± 1.4 cmH2O; urethral contractile responses before administration ([2]; increase in intravesical pressure to 50 cmH2O, dose group 0.3 mg/kg i.v.): 12.8 ± 2.4 cmH2O; urethral contractile responses after administration ([2]; increase in intravesical pressure to 25 cmH2O, 0.3 mg/kg i.v.): 11.3 ± 1.8 cmH2O; urethral contractile responses after administration ([2]; increase in intravesical pressure to 50 cmH2O, 0.3 mg/kg i.v.): 19.2 ± 3.4 cmH2O; leak point pressure after drug administration ([3]; 0.03 mg/kg): 41.2 ± 3.0 cmH2O; leak point pressure after drug administration ([3]; 1 mg/kg): 43.6 ± 3.2 cmH2O; leak point pressure before drug administration ([3]; dose group 0.03 mg/kg): 34.8 ± 3.2 cmH2O; leak point pressure before drug administration ([3]; dose group 1 mg/kg): 34.8 ± 3.0 cmH2O
2 | CNCC[C@H](Oc1cccc2ccccc12)c1cccs1 [duloxetine] | 67.8 ± 2.9 cmH2O | 6.5 ± 1.6 cmH2O | 72.6 ± 3.4 cmH2O | 9.3 ± 1.2 cmH2O | 73.3 ± 3.9 cmH2O | 8.8 ± 2.1 cmH2O | 61.3 ± 3.3 cmH2O | 63.3 ± 3.8 cmH2O | 64.5 ± 3.5 cmH2O | increased the leak point pressure | enhanced the urethral contractile responses | 42.8 ± 4.9 cmH2O | 37.0 ± 4.5 cmH2O | increased the leak point pressure | leak point pressure after drug administration ([1]; 0.01 mg/kg): 60.5 ± 5.1 cmH2O; leak point pressure increase ([1]; 0.01 mg/kg): 2.4 ± 2.6 cmH2O; leak point pressure after drug administration ([1]; 1 mg/kg): 75.0 ± 4.0 cmH2O; leak point pressure increase ([1]; 1 mg/kg): 13.9 ± 1.8 cmH2O; leak point pressure before drug administration ([1]; dose group 0.01 mg/kg): 58.1 ± 6.0 cmH2O; leak point pressure before drug administration ([1]; dose group 1 mg/kg): 61.1 ± 3.4 cmH2O; urethral contractile responses before administration ([2]; increase in intravesical pressure to 25 cmH2O, dose group 10 mg/kg i.v.): 8.5 ± 0.5 cmH2O; urethral contractile responses before administration ([2]; increase in intravesical pressure to 50 cmH2O, dose group 10 mg/kg i.v.): 13.4 ± 2.1 cmH2O; urethral contractile responses after administration ([2]; increase in intravesical pressure to 25 cmH2O, 10 mg/kg i.v.): 11.4 ± 0.6 cmH2O; urethral contractile responses after administration ([2]; increase in intravesical pressure to 50 cmH2O, 10 mg/kg i.v.): 17.8 ± 2.2 cmH2O; leak point pressure after drug administration ([3]; 0.001 mg/kg): 38.2 ± 3.7 cmH2O; leak point pressure before drug administration ([3]; dose group 0.001 mg/kg): 36.5 ± 4.2 cmH2O

Source: patent US8685924B2, “Preventives/remedies for stress urinary incontinence and method of screening the same” (Takeda Pharmaceutical Company Limited, priority 2004, dated 2014)
